Reference: publication PMC4520264 (Organic & biomolecular chemistry, 2015)
pKd: −log10 of the molar value.

What was measured:
Assay type in all cases: binding
[1] = target: R1 (scFv fluorescence-activating protein, FAP); assay: fluorescence ligand depletion titration with […] R1; conditions: read-out: TO
[2] = target: HL1.0.1-TO1 (scFv fluorescence-activating protein, FAP); assay: fluorescence ligand depletion titration with […] FAP; conditions: read-out: TO1-2p
[3] = target: R1 (scFv fluorescence-activating protein, FAP); assay: fluorescence; conditions: read-out: Coumarin-TO
[4] = target: HL1.0.1-TO1 (scFv fluorescence-activating protein, FAP); assay: fluorescence; conditions: read-out: TO1-2p-Cy5

CN1/C(=C/c2cc[n+](C)c3ccccc23)Sc2ccccc21 [TO]
pKd [1]: 9.77

TO1-2p
pKd [2]: 9.52

coumarin-TO
pKd [3]: 8.96

TO1-2p-Cy5
pKd [4]: 7.92
